Reference: ChEMBL document CHEMBL3881527, “Multi-functional small molecules as anti-proliferative agents” (2008)
The source made the active and inactive calls. The rule behind the calls is not given here.

Columns and labels:
[1] = Cytotoxicity against human CFPAC cells assessed as growth inhibition by measuring ATP levels after 72 hrs by ATPlite assay; assay type: functional, cell-based
[2] = target: Cyclin-dependent kinase 2/cyclin E1 (Homo sapiens, UniProt P24941); assay: Inhibition of C-terminal His6-tagged full length CDK2/N-terminal GST-tagged recombinant full length human cyclin E1 expressed in baculovirus infected SF21 insect cells using histone H1 as substrate after 2 hrs in presence of [gamma-33P]-ATP
CDK6/cyclin D3 = CDK6/cyclin D3 (Homo sapiens, UniProt Q00534); assay: Inhibition of N-terminal His6-tagged full length human CDK6/N-terminal GST-tagged recombinant full length human cyclin D3 expressed in baculovirus infected SF21 insect cells using histone H1 as substrate after 2 hrs in presence of [gamma-33P]-ATP
[3] = target: Vascular endothelial growth factor receptor 2 (Homo sapiens, UniProt P35968); assay: Inhibition of N-terminal GST-His6-thrombin cleavage site-fused human VEGFR2 (Asp805 to Val1356 residues) expressed in baculovirus expression system using biotinylated gastrin precursor at Tyr87 as substrate preincubated for 5 mins followed by substrate addition measured after 30 mins by DELFIA method
[4] = target: Mast/stem cell growth factor receptor Kit (Homo sapiens, UniProt P10721); assay: (§1) Inhibition of human N-terminal GST-tagged human c-Kit (Thr544 to Val976 residues) expressed in baculovirus expression system assessed as decrease in biotinylated KDR phosphorylation at Tyr996 preincubated for 5 mins followed by substrate addition measured after 30 mins by DELFIA method
[5] = target: Platelet-derived growth factor receptor beta (Homo sapiens, UniProt P09619); assay: Inhibition of N-terminal GST-His6-thrombin cleavage site-fused human PDGFRbeta (Arg561 to Leu1106 residues) assessed as decrease in biotinylated FLT3 phosphorylation at Tyr589 preincubated for 5 mins followed by substrate addition measured after 30 mins by DELFIA method
[6] = target: Receptor tyrosine-protein kinase erbB-2 (Homo sapiens, UniProt P04626); assay: Inhibition of N-terminal GST-tagged human HER2 (Lys676 to Val1255 residues) expressed in baculovirus expression system using biotinylated FLT3 at Tyr589 as substrate preincubated for 5 mins followed by substrate addition measured after 30 mins by DELFIA method
SK-BR-3 = assay: Induction of apoptosis in human SKBR3 cells assessed as increase in caspase3/7 activity after 24 hrs; assay type: functional, cell-based; conditions: SK-BR-3, 24 h
[7] = Toxicity in Sprague-Dawley rat assessed as change in body weight up to 200 mg/kg, ip administered as single dose in 30% captisol measured over 8 days; assay type: organism-based; conditions: in vivo, 192 h
HCT-116 [8] = assay: Induction of apoptosis in human HCT116 cells assessed as increase in caspase3/7 activity after 24 hrs; assay type: functional, cell-based; conditions: HCT-116, 24 h
[9] = Toxicity in CD1 mouse assessed as change in body weight up to 200 mg/kg, iv administered as single dose in 30% captisol measured over 9 days; assay type: organism-based; conditions: in vivo, 216 h
[10] = Antitumor activity against human A549 cells xenografted in nu/nu athymic mouse assessed as increase in tumor size at 120 mg/kg administered in 30% captisol after 24 hrs (reference value: 240%); assay type: functional
[11] = Toxicity in CD1 mouse assessed as change in body weight up to 100 mg/kg, ip administered as repeated dosing in 30% captisol measured over 7 days; assay type: organism-based; conditions: in vivo, 168 h
[12] = Solubility of the compound at pH 2 to 3; assay type: physicochemical; conditions: buffer
[13] = Chemical stability in diluted solution; assay type: physicochemical
[14] = Drug uptake in iv dosed Sprague-Dawley rat plasma administered in 30% captisol as 5 mins infusion; assay type: ADME, organism-based; conditions: in vivo
Colon = assay: Cmax in CD1 mouse colon at 20 mg/kg, iv administered in 30% captisol as 2 mins infusion by LC/MS/MS analysis; assay type: ADME, organism-based; design: dose 20 mg/kg, route intravenous; conditions: in vivo
[15] = Solubility of the compound at pH 3 to 4; assay type: physicochemical; conditions: buffer
[16] = target: Serine/threonine-protein kinase B-raf (Homo sapiens, UniProt P15056); assay: Inhibition of N-terminal GST-tagged recombinant human B-Raf ([…] residues) expressed in baculovirus infected Sf21 insect cells using MEK1 as substrate preincubated for 5 mins followed by substrate addition measured after 30 mins by DELFIA
[17] = target: Tyrosine-protein kinase ABL1 (Homo sapiens, UniProt P00519); assay: as §1, with “Abl1 (Pro118” for “c-Kit (Thr544”, “Ser553” for “Val976”, “biotin signal transduction protein” for “biotinylated KDR”, “Tyr160” for “Tyr996”
[18] = target: Proto-oncogene tyrosine-protein kinase Src (Homo sapiens, UniProt P12931); assay: Inhibition of human N-terminal GST-tagged full length human Src (Met1 to Leu536 residues) expressed in baculovirus expression system assessed as decrease in biotin signal transduction protein phosphorylation at Tyr160 preincubated for 5 mins followed by substrate addition measured after 30 mins by DELFIA method
[19] = target: Epidermal growth factor receptor (Homo sapiens, UniProt P00533); assay: Inhibition of N-terminal GST-fused human EGFR (His672 to Ala1210 residues) expressed in baculovirus expression system using biotinylated PTP1B at Tyr66 as substrate preincubated for 5 mins followed by substrate addition measured after 30 mins by DELFIA
A-431 = assay: Antitumor activity against human A431 cells xenografted in nu/nu athymic mouse assessed as tumor growth inhibition at 6 to 48 mg/kg, ip qd administered for 21 days measured twice weekly during compound dosing; assay type: functional, organism-based
NCI-H358 = assay: Antitumor activity against human NCI-H358 cells xenografted in nu/nu athymic mouse assessed as tumor growth inhibition at 15 to 60 mg/kg, iv as 2 mins infusion administered via 7 days on 7 days off and 5 days on regimen measured twice weekly during compound dosing; assay type: functional, organism-based
BXPC-3 = assay: Antitumor activity against human BxPC3 cells xenografted in nu/nu athymic mouse assessed as tumor growth inhibition at 10 to 40 mg/kg, iv as 2 mins infusion administered via 7 days on 7 days off and 2 days on regimen measured twice weekly during compound dosing; assay type: functional, organism-based
HCT-116 [20] = assay: Antitumor activity against human HCT116 cells xenografted in nu/nu athymic mouse assessed as tumor growth inhibition at 15 to 60 mg/kg, iv as 2 mins infusion administered via 5 days on 2 days off and 5 days on regimen measured twice weekly during compound dosing; assay type: functional, organism-based
PC-3 = assay: Antitumor activity against human PC3 cells xenografted in nu/nu athymic mouse assessed as tumor growth inhibition at 10 to 40 mg/kg, iv as 2 mins infusion administered via 7 days on 7 days off and 5 days on regimen measured twice weekly during compound dosing; assay type: functional, organism-based
HPAC = assay: Antitumor activity against human HPAC cells xenografted in nu/nu athymic mouse assessed as tumor growth inhibition at 120 mg/kg, iv or ip administered in 30% captisol; assay type: functional, organism-based
NCI-H292 = assay: Antitumor activity against human NCI-H292 cells xenografted in nu/nu athymic mouse assessed as tumor growth inhibition at 15 to 60 mg/kg, iv as 2 mins infusion administered via 7 days on 7 days off and 5 days on regimen measured twice weekly during compound dosing; assay type: functional, organism-based
[21] = Solubility of the compound at pH 4 to 5; assay type: physicochemical; conditions: buffer

CDK6/cyclin D3, sequence (P30281 whole entry, the tested form may be a part): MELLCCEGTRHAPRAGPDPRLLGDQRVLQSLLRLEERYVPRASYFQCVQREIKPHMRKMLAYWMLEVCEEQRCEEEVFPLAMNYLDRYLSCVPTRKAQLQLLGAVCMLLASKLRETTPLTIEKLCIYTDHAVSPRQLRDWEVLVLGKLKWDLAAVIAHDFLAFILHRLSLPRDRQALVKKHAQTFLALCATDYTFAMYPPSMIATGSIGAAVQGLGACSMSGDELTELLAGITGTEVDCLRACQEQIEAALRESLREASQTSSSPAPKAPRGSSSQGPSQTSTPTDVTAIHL
CDK6/cyclin D3, sequence (Q00534 whole entry, the tested form may be a part): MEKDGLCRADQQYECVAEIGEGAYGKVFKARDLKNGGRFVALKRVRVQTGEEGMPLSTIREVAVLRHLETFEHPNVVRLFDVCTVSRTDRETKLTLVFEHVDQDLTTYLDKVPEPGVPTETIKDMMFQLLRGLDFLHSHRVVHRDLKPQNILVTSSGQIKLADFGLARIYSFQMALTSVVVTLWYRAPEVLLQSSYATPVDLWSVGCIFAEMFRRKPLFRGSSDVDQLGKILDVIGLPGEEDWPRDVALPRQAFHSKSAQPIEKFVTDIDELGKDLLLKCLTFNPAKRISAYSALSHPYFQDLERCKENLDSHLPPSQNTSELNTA
Platelet-derived growth factor receptor beta, sequence (P09619 whole entry, the tested form may be a part): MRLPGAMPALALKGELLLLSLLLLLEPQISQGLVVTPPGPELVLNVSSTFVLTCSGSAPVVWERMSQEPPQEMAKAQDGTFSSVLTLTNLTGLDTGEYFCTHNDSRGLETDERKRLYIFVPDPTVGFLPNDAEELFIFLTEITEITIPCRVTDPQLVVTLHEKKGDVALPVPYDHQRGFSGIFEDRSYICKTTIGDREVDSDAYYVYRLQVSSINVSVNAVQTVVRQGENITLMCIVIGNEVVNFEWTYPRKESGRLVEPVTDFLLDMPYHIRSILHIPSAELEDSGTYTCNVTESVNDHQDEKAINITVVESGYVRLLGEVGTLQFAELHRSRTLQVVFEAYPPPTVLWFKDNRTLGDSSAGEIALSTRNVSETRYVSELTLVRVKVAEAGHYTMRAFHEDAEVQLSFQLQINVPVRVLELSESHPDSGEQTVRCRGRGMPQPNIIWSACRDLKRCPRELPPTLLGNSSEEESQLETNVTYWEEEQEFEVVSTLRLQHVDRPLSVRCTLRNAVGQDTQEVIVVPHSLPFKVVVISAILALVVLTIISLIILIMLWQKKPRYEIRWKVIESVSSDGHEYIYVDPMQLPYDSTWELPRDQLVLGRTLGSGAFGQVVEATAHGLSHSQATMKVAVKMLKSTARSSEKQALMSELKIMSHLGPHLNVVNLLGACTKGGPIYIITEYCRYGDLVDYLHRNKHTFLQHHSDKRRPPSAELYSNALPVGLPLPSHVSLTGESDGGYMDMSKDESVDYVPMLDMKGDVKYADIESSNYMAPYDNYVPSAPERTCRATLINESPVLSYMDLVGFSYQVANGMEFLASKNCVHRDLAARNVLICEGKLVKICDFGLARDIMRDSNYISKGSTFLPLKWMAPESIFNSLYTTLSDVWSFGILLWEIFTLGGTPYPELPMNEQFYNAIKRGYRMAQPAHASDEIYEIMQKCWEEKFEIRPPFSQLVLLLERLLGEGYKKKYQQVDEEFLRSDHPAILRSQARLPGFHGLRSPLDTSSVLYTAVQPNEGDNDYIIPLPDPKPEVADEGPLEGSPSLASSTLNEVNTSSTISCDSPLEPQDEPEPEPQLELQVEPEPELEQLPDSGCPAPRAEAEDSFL
Proto-oncogene tyrosine-protein kinase Src, sequence (P12931 2-536 limits assumed): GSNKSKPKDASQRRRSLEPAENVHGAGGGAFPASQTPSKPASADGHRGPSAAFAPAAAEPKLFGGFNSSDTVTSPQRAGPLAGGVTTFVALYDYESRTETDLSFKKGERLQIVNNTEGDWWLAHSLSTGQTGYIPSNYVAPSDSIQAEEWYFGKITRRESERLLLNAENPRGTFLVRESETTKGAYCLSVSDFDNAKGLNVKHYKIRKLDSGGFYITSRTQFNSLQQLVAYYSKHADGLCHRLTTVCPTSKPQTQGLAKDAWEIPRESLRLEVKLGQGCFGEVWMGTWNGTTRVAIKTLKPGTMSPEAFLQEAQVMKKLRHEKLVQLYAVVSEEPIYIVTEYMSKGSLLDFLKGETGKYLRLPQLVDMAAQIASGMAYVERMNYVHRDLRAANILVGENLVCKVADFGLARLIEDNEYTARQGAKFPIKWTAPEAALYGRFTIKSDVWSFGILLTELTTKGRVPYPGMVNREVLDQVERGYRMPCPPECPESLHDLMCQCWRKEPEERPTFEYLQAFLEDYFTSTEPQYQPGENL
Vascular endothelial growth factor receptor 2, sequence (P35968 whole entry, the tested form may be a part): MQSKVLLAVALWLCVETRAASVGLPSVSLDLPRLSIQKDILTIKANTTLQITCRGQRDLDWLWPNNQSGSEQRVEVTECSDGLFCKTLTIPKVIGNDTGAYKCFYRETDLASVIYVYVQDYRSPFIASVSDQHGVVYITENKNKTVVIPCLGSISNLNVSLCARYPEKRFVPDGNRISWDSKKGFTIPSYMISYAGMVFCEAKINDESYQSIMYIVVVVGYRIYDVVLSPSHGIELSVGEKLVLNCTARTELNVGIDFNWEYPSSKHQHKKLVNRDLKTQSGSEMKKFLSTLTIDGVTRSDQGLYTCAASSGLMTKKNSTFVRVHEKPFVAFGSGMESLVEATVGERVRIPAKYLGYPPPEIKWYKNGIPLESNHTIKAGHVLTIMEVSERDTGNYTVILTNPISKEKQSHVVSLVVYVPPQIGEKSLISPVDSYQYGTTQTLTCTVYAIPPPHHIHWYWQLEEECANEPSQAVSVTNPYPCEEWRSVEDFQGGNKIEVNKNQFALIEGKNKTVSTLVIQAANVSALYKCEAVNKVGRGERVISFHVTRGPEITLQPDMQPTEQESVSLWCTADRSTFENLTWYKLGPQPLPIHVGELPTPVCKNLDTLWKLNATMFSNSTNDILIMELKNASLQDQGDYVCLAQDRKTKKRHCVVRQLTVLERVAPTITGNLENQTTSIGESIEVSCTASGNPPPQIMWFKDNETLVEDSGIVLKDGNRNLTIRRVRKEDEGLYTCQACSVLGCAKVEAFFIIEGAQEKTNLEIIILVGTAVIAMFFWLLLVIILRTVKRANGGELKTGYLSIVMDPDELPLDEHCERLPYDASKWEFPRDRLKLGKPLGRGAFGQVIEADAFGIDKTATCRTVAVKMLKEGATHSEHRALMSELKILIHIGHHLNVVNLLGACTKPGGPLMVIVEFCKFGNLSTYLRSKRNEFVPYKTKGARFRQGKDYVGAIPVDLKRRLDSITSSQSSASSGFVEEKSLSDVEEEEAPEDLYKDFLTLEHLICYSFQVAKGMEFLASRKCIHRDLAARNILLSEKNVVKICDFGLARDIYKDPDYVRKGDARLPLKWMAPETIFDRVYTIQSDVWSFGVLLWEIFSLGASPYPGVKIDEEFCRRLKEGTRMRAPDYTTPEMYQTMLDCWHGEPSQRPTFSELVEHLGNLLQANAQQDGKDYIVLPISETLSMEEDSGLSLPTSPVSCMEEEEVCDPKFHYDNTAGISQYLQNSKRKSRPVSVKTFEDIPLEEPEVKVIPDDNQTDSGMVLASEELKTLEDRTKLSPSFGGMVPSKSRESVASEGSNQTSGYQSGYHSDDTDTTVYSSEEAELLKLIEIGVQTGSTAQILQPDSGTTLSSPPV
Receptor tyrosine-protein kinase erbB-2, sequence (P04626 whole entry): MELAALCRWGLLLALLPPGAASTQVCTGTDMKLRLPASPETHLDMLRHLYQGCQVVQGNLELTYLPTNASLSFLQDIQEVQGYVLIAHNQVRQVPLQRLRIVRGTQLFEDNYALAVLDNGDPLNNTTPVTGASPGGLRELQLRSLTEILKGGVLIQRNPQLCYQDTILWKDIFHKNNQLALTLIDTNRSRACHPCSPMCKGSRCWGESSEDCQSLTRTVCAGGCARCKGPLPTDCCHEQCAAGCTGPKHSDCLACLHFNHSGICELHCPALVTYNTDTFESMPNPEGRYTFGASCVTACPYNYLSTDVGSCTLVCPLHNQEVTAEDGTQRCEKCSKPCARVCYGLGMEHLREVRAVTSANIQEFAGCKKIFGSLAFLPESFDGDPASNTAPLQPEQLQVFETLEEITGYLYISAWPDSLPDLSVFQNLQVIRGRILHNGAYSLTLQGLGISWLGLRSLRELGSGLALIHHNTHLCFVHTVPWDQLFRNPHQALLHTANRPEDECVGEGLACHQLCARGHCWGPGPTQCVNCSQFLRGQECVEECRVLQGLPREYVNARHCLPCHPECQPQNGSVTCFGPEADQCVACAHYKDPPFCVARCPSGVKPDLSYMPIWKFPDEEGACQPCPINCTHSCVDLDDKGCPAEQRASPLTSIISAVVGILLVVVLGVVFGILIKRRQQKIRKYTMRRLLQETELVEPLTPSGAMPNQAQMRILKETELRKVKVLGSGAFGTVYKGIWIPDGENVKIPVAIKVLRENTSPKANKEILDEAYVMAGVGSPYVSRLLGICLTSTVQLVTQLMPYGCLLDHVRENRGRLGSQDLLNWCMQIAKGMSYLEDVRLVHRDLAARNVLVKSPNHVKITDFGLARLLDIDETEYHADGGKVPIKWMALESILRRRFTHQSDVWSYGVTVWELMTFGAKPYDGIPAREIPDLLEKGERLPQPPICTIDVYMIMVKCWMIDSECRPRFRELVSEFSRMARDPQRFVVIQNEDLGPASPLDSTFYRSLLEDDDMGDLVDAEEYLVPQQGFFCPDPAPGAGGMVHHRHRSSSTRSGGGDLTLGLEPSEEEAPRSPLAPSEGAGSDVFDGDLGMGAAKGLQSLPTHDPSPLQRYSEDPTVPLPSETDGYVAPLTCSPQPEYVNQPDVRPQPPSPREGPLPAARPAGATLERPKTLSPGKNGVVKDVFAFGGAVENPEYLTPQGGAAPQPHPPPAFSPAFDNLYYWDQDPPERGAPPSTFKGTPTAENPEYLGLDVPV

For `COc1cc2ncnc(NCc3ccccc3)c2cc1OCCCCCCC(=O)NO`, the IC50 [1] was 1000 to 10000 nM.
Work on `CC(C)(C)c1cnc(CSc2cnc(NC(=O)CCCC(=O)NO)s2)o1` yielded an IC50 [2] of at most 100 nM and an IC50 (CDK6/cyclin D3) of 100 to 1000 nM.
Compound `COc1cc2ncnc(N[C@H](C)c3ccccc3)c2cc1OCCCCCC(=O)NO` has an IC50 [1] of 1000 to 10000 nM.
In the case of `CC(C)(C)c1cnc(CSc2cnc(NC(=O)Cc3ccc(OCCCCC(=O)NO)cc3)s2)o1`, the IC50 [2] is reported as at most 100 nM.
For `O=C(CCCCC(=O)NCc1cc(Oc2ccc(NC(=O)Nc3ccc(Cl)c(C(F)(F)F)c3)cc2)ccn1)NO`, the IC50 [3] was at most 100 nM, the IC50 [4] was at most 100 nM and the IC50 [5] was 100 to 1000 nM.
With `COc1cc2ncnc(Nc3ccc(F)c(Cl)c3)c2cc1NC(=O)CCCCCCC(=O)NO` the IC50 [6] was 100 to 1000 nM and the IC50 [1] was 1000 to 10000 nM.
In the case of `CC(C)(C)c1cnc(CSc2cnc(NC(=O)CCCCCC(=O)NO)s2)o1`, the IC50 [2] is reported as at most 100 nM and the IC50 (CDK6/cyclin D3) is reported as 100 to 1000 nM.
In the case of `C#Cc1cccc(Nc2ncnc3cc(OC)c(OCCCCCCC(=O)NO)cc23)c1` [CUDC-101], the IC50 (SK-BR-3) is reported as 920 nM, the Activity [7] is reported as “Non-Toxic” and the IC50 (HCT-116 [8]) is reported as 170 nM. For the same compound, the Activity [9] was “Non-Toxic”, the IC50 [1] was 100 to 1000 nM and the Activity [10] was 150%. The Activity [11] was “Non-Toxic”.
`O=C(CCCCCCCNC(=O)c1cc(Oc2ccc(NC(=O)Nc3ccc(Cl)c(C(F)(F)F)c3)cc2)ccn1)NO` showed an IC50 [3] of 100 to 1000 nM, an IC50 [4] of at most 100 nM and an IC50 [5] of 100 to 1000 nM.
Compound `CC(C)(C)c1cnc(CSc2cnc(NC(=O)CCCCCCC(=O)NO)s2)o1` has an IC50 [2] of at most 100 nM.
With `C#Cc1cccc(Nc2ncnc3cc(OCCOC)c(OCCOC)cc23)c1` [ERLOTINIB] the IC50 (SK-BR-3) was over 20000 nM and the IC50 (HCT-116 [8]) was over 20000 nM.
For `C#Cc1cccc(Nc2ncnc3cc(OC)c(OCCCCCCC(=O)NO)cc23)c1.Cl`, the solubility [12] was 25 mg/mL, the Stability [13] was over 12 h and the Drug uptake [14] was “Dose-dependent effect”. For the same compound, the Cmax (Colon) was 8.5 µM.
For `C#Cc1cccc(Nc2ncnc3cc(OC)c(OCCCCCCC(=O)NO)cc23)c1.O=C(O)C(O)C(O)C(=O)O`, the Stability [13] was over 12 h and the solubility [15] was 60 mg/mL.
Compound `O=C(CCCCCNC(=O)c1cc(Oc2ccc(NC(=O)Nc3ccc(Cl)c(C(F)(F)F)c3)cc2)ccn1)NO` has an IC50 [3] of at most 100 nM, an IC50 [16] of 1000 to 10000 nM and an IC50 [4] of at most 100 nM. For the same compound, the IC50 [5] was 100 to 1000 nM.
`Cc1nc(Nc2ncc(C(=O)Nc3c(C)cccc3Cl)s2)cc(N2CCN(CCCCC(=O)NO)CC2)n1` showed an IC50 [17] of at most 100 nM, an IC50 [5] of at most 100 nM and an IC50 [18] of at most 100 nM.
`COc1cc2ncnc(Nc3ccc(F)c(Cl)c3)c2cc1OCCOc1ccc(/C=C/C(=O)NO)cc1` gave an IC50 [19] of at most 100 nM and an IC50 [1] of at least 10000 nM.
Work on `C#Cc1cccc(Nc2ncnc3cc(OC)c(OCCCCCCC(=O)N[O-])cc23)c1.[Na+]` yielded a Stability [13] of over 12 h.
With `O=C(CCCCCCC(=O)NCc1cc(Oc2ccc(NC(=O)Nc3ccc(Cl)c(C(F)(F)F)c3)cc2)ccn1)NO` the IC50 [3] was at most 100 nM, the IC50 [4] was at most 100 nM and the IC50 [5] was 100 to 1000 nM.
`CC(C)(C)c1cnc(CSc2cnc(NC(=O)Cc3ccc(OCCCC(=O)NO)cc3)s2)o1` showed an IC50 [2] of at most 100 nM.
Work on `Cc1nc(NCCCCCCC(=O)NO)cc(Nc2ncc(C(=O)Nc3c(C)cccc3Cl)s2)n1` yielded an IC50 [4] of at most 100 nM, an IC50 [17] of at most 100 nM and an IC50 [5] of at most 100 nM. For the same compound, the IC50 [18] was at most 100 nM.
In the case of `Cc1nc(Nc2ncc(C(=O)Nc3c(C)cccc3Cl)s2)cc(N2CCN(CCCCCC(=O)NO)CC2)n1`, the IC50 [4] is reported as at most 100 nM, the IC50 [17] is reported as at most 100 nM and the IC50 [5] is reported as at most 100 nM. For the same compound, the IC50 [18] was at most 100 nM.
Work on `Cc1nc(Nc2ncc(C(=O)Nc3c(C)cccc3Cl)s2)cc(N2CCN(CCCCCCC(=O)NO)CC2)n1` yielded an IC50 [4] of at most 100 nM, an IC50 [17] of at most 100 nM and an IC50 [5] of at most 100 nM. The IC50 [18] was at most 100 nM.
`CC(C)(C)c1cnc(CSc2cnc(NC(=O)CCCCC(=O)NO)s2)o1` gave an IC50 [2] of at most 100 nM and an IC50 (CDK6/cyclin D3) of 100 to 1000 nM.
In the case of `Cc1nc(NCCCCCC(=O)NO)cc(Nc2ncc(C(=O)Nc3c(C)cccc3Cl)s2)n1`, the IC50 [4] is reported as at most 100 nM, the IC50 [17] is reported as at most 100 nM and the IC50 [5] is reported as at most 100 nM. It also gave an IC50 [18] of at most 100 nM.
In the case of `C#Cc1cccc(Nc2ncnc3cc(OC)c(OCCCCCCC(=O)NO)cc23)c1`, the TGI (A-431) is reported as “Active”, the TGI (NCI-H358) is reported as “Active” and the TGI (BXPC-3) is reported as “Active”. The TGI (HCT-116 [20]) was “Active”, the TGI (PC-3) was “Active” and the TGI (HPAC) was “Active”. The TGI (NCI-H292) was “Active”.
`COCCOc1cc2ncnc(Nc3ccc(F)c(Cl)c3)c2cc1NC(=O)CCCCCCC(=O)NO` showed an IC50 [6] of at most 100 nM and an IC50 [1] of 1000 to 10000 nM.
`C#Cc1cccc(Nc2ncnc3cc(OC)c(OCCCCCCC(=O)NO)cc23)c1.O=C(O)CC(O)(CC(=O)O)C(=O)O` showed a Stability [13] of over 12 h and a solubility [21] of 25 mg/mL.
For `O=C(CCCCCCOc1ccc2ncnc(Nc3ccc(F)c(Cl)c3)c2c1)NO`, the IC50 [6] was 100 to 1000 nM and the IC50 [1] was 100 to 1000 nM.
